Converted amounts (≈) assume the structure as drawn.

What all share (test): In vitro antibacterial activity, two-fold agar-plate dilution method
Assay type in all cases: cell-based

For test [1], the system named is Staphylococcus aureus 209P JC-1. As to conditions: HI-agar, 37° C., 20 hours, 100-fold dilution of overnight culture, read-out: minimal inhibitory concentration (MIC). The protocol:
(§1) In vitro antibacterial activity was determined by the two-fold agar-plate dilution method as described below. One loopful of the 100-fold dilution of an overnight culture of each test strain in Trypticasesoy broth was streaked on heart infusion agar (HI-agar) containing graded concentrations of the test compound and incubated at 37° C. for 20 hours. The minimal inhibitory concentration (MIC) was expressed in μg/ml.

Test [2] concerns Proteus vulgaris IAM-1025. The following applies: IAM1025, HI-agar, 37° C., 20 hours, 100-fold dilution of overnight culture, read-out: minimal inhibitory concentration (MIC). The protocol: as §1
A further test has as its system Proteus mirabilis 18. The following applies: HI-agar, 37° C., 20 hours, 100-fold dilution of overnight culture, read-out: minimal inhibitory concentration (MIC). The procedure: as §1
The test system of test [3] is Escherichia coli. NIHJ JC-2. The following applies: NIHJJC2, HI-agar, 37° C., 20 hours, 100-fold dilution of overnight culture, read-out: minimal inhibitory concentration (MIC). The protocol:
as §1

In another test the test system is Serratia marcescens 35. As to conditions: HI-agar, 37° C., 20 hours, 100-fold dilution of overnight culture, read-out: minimal inhibitory concentration (MIC). The protocol:
as §1

The test system of test [4] is Pseudomonus aeruginosa NCTC-10490. As to conditions: HI-agar, 37° C., 20 hours, 100-fold dilution of overnight culture, read-out: minimal inhibitory concentration (MIC). The procedure:
as §1

The test system of a further test is Klebsiella pneumoniae 20. The following applies: HI-agar, 37° C., 20 hours, 100-fold dilution of overnight culture, read-out: minimal inhibitory concentration (MIC). The procedure: as §1

With `CO/N=C(\C(=O)NC1C(=O)N2C(C(=O)O)=CCSC12)c1csc(N)n1` (stereo not drawn) [7-[2-(2-aminothiazol-4-yl)-2-methoxyiminoacetamido]-3-cephem-4-carboxylic acid (syn isomer)], the MIC is 6.25 µg/mL (≈ 16.3 µM) in test [1]; ≤ 0.025 µg/mL in test [2]; ≤ 0.025 µg/mL in the test with Proteus mirabilis 18; ≤ 0.025 µg/mL in test [3]; 1.56 µg/mL (≈ 4.07 µM) with Serratia marcescens 35; 0.39 µg/mL (≈ 1.02 µM) in test [4]. Besides, the MIC with Klebsiella pneumoniae 20 is ≤ 0.025 µg/mL.

(Values after patent US4368325A, “Processes for preparing 3-cephem compounds” (Fujisawa Pharmaceutical Co., Ltd., priority 1980, dated 1983).)
